Molecules are shown by their SMILES.

The first experiment has as its system HCT-116 cells stably transfected with a Luciferase reporter gene under the control of HIF-responsive element. The experiment can be described thus: HIF-Luciferase Assay. Conditions: Homo sapiens, HCT-116, HIF-Luciferase Assay, HCT-116 reporter cells, overnight at 1% oxygen; group >10, unit inferred. It counts as cell-based. Here is the method:
HCT-116 cells stably transfected with a Luciferase reporter gene under the control of HIF-responsive element were plated in white 96- or 384-well plates at 30,000 or 5,000 cells/well, respectively, in 50 μL/well media (RPMI with 10% fetal bovine serum and 100 μg/mL Hygromycin). Cells were incubated overnight at 37° C. in a humidified incubator containing 5% CO2 under normal oxygen. The next day test compounds were added to the wells at various concentrations (0-10 μM, 0.1% final DMSO concentration) and placed in a hypoxic chamber overnight at 1% oxygen. Following the exposure to hypoxic conditions, 50 μL/well of Bright Glo reagent (Promega, Wisconsin, USA) was added to the wells and luminescence was measured after 5 min. Cells incubated under normal oxygen levels were used as background control. […] Compounds that have IC50 values between 1 μM and 10 μM include those of Examples 8, 16, 38, 39, 40, 41, 42, 43, 47, 48, 53, 54, 56, 57, 66, 69, and 72.
As a reminder, the IC50 is the concentration at which inhibition is half-maximal. The low end stands for greater potency in that assay, the high end for weaker potency in that assay. As for `Cc1ccc(Cn2nc(-c3nc(-c4ccc(F)c(Br)c4)no3)cc2C)cc1` [Example 15, 3-(3-bromo-4-fluorophenyl)-5-[5-methyl-1-(4-methylbenzyl)-1H-pyrazol-3-yl]-1,2,4-oxadiazole], the IC50 was above 10000 nM.

The experiment is the same for the next values; noted with them: Homo sapiens, HCT-116, HIF-Luciferase Assay, HCT-116 reporter cells, overnight at 1% oxygen; individual values.
Take `Cc1ccc(Cn2nc(-c3nc4ccc(-c5ccc(F)cc5)cc4[nH]3)cc2C)cc1` [Example 59, 6-(4-Fluorophenyl)-2-[5-methyl-1-(4-methylbenzyl)-1H-pyrazol-3-yl]-1H-benzimidazole]: half-maximal inhibition (IC50) was put at 5 nM. Same read-out and setting: the same measure for `Cc1ccc(Cn2nc(-c3nc(-c4ccc(C(C)(C)F)cc4)no3)cc2C)cc1` [Example 103, 3-[4-(1-fluoro-1-methylethyl)phenyl]-5-[5-methyl-1-(4-methylbenzyl)-1H-pyrazol-3-yl]-1,2,4-oxadiazole]: 10 nM; for `Cc1ccc(Cn2nc(-c3nc(-c4ccc(Cn5cccc5)cc4)no3)cc2C)cc1` [Example 140, 5-[5-Methyl-1-(4-methylbenzyl)-1H-pyrazol-3-yl]-3-[4-(1H-pyrrol-1-yl-methyl)phenyl]-1,2,4-oxadiazole]: 40 nM.

Staying with this experiment, now noted: Homo sapiens, HCT-116, HIF-Luciferase Assay, HCT-116 reporter cells, overnight at 1% oxygen; potency groups.
Take `Cc1ccc(Cn2nc(-c3nc(-c4ccc(C5CCCCC5)cc4)no3)cc2C)cc1` [Example 11, 3-(4-cyclohexylphenyl)-5-[5-methyl-1-(4-methylbenzyl)-1H-pyrazol-3-yl]-1,2,4-oxadiazole]: the IC50 is at most 1000 nM. Same read-out and setting: as for `Cc1ccc(Cn2nc(-c3nc4ccc(C)cc4[nH]3)cc2C)cc1` [Example 39, 6-methyl-2-[5-methyl-1-(4-methylbenzyl)-1H-pyrazol-3-yl]-1H-benzimidazole], the figure is 1000 to 10000 nM; as for `Cc1ccc(Cn2nc(-c3nc4ccc(-c5cccc(Cl)c5)cc4[nH]3)cc2C)cc1` [Example 63, 6-(3-chlorophenyl)-2-[5-methyl-1-(4-methylbenzyl)-1H-pyrazol-3-yl]-1H-benzimidazole], at most 1000 nM; as for `Cc1ccc(Cn2nc(-c3nc4ccc(-c5ccccc5)cc4[nH]3)cc2C)cc1` [Example 45, 2-[5-methyl-1-(4-methylbenzyl)-1H-pyrazol-3-yl]-6-phenyl-1H-benzimidazole], at most 1000 nM.

Consider `Cc1ccc(Cn2nc(-c3nc4cc5c(cc4[nH]3)OC(F)(F)O5)cc2C)cc1` [Example 55, 2,2-difluoro-6-[5-methyl-1-(4-methylbenzyl)-1H-pyrazol-3-yl]-5H-[1,3]dioxolo[4,5-f]benzimidazole], for which the IC50 was at most 1000 nM. Still for that read-out and setting: the same measure for `Cc1ccc(Cn2nc(-c3nc(-c4ccncc4)no3)cc2C)cc1` [Example 14, 4-{5-[5-Methyl-1-(4-methylbenzyl)-1H-pyrazol-3-yl]-1,2,4-oxadiazol-3-yl}pyridine]: at most 1000 nM; for `Cc1ccc(Cn2nc(-c3nc4ccc(-c5ccc(F)cc5)cc4[nH]3)cc2C)cc1` [Example 59, 6-(4-Fluorophenyl)-2-[5-methyl-1-(4-methylbenzyl)-1H-pyrazol-3-yl]-1H-benzimidazole]: at most 1000 nM.

`Cc1ccc(Cn2nc(-c3nc4cc5ccccc5cc4[nH]3)cc2C)cc1` [Example 47, 2-[5-methyl-1-(4-methylbenzyl)-1H-pyrazol-3-yl]-1H-naphtho[2,3-d]imidazole]: the IC50 is 1000 to 10000 nM. On the same count and under the same terms, the same measure for `Cc1ccc(Cn2nc(-c3nc(-c4ccc(N5CCOC5=O)cc4)no3)cc2C)cc1` [Example 25, 3-(4-{5-[5-methyl-1-(4-methylbenzyl)-1H-pyrazol-3-yl]-1,2,4-oxadiazol-3-yl}phenyl)-1,3-oxazolidin-2-one]: at most 1000 nM; for `Cc1ccc(C(C)n2nc(-c3nc(-c4ccc(Br)cc4)no3)cc2C)cc1` (stereo not drawn) [Example 8, 3-(4-bromophenyl)-5-{5-methyl-1-[1-(4-methylphenyl)ethyl]-1H-pyrazol-3-yl}-1,2,4-oxadiazole]: 1000 to 10000 nM; for `Cc1ccc(Cn2nc(-c3nc(-c4ccccc4)no3)cc2C)cc1` [Example 9, 5-[5-methyl-1-(4-methylbenzyl)-1H-pyrazol-3-yl]-3-phenyl-1,2,4-oxadiazole]: at most 1000 nM.
